According to patent US7795305B2, “CDDO-compounds and combination therapies thereof” (Board of Regents, The University of Texas System, priority 2000, dated 2010):

Assays:
GAL4-PPARγ = assay: Gal4-PPARγ chimeric protein luciferase transactivation; format: cell-based
Procedure: To determine if bound CDDO transactivates PPARγ, a Gal4-PPARγ chimeric protein was used to drive the expression of luciferase linked to the DNA binding sequence of GAL4 (FIG. 11B) (Wang et al., 2000). […] All known pharmacological PPARγ ligands had anti-proliferative and differentiating effects only when used at higher (3 or 5 μM)concentrations.

U937 cells = assay: Mitochondrial membrane potential; format: cell-based, human
Procedure: (§1) Cytofluorometric analysis of the Δψm. To evaluate the Δψm, cells were incubated with the cationic lipophilic dye […] (CMXRos; 150 nM; Molecular Probes, Inc., Eugene, Oreg.). CMXRos is incorporated into mitochondria driven by the […] and reacts with thiol residues to form covalent thiol ester bonds. CMXRos fluorescence was recorded by flow cytometry in the FL3 channel. Background values of the apoptosis of control cells cultured without the CDDO-Me or in DMSO-solvent control (<10% CMXRos-low) were subtracted from the values obtained under the experimental conditions.
An early mitochondrial disruption has been observed in a number of different models of apoptosis. Changes in the cellular content of the cationic lipophilic fluorochrome CMXRos were determined by FACS analysis to measure loss of the mitochondrial membrane potential (Δψ) (Macho et al., 1996). […] Similarly, exposure of HL-60 to CDDO-Me (1 μM) for 2 and 4 hrs increased the number of cells with low JC-1 (57 and 60%) or CMXRos staining (46 and 57%), both assays measuring the decrease in Δψ. CDDO-Me-induced changes in the mitochondrial membrane potential of the cells preceded caspase activation and changes in the composition of the plasma membrane. […]

HL-60 cells = assay: Mitochondrial membrane potential (JC-1, CMXRos); format: cell-based, human; details: for cells with low CMXRos staining / cells with low JC-1: 1 μM
Procedure: as §1
In a series of experiments, cells were pretreated for 1 hour with 50 μM CyA or 50 μM BA prior to the addition of CDDO-Me. These agents prevent a reduction in Δψm induced by various agents that open mitochondrial permeability transition pores.
An early mitochondrial disruption has been observed in a number of different models of apoptosis. Changes in the cellular content of the cationic lipophilic fluorochrome CMXRos were determined by FACS analysis to measure loss of the mitochondrial membrane potential (Δψ) (Macho et al., 1996). […] Similarly, exposure of HL-60 to CDDO-Me (1 μM) for 2 and 4 hrs increased the number of cells with low JC-1 (57 and 60%) or CMXRos staining (46 and 57%), both assays measuring the decrease in Δψ. CDDO-Me-induced changes in the mitochondrial membrane potential of the cells preceded caspase activation and changes in the composition of the plasma membrane. In order to validate the role of the dissipation of Δψ in CDDO-treated cells the pharmacological inhibitors of permeability transition cyclosporin A (CyA) (Nicolli et al., 1996) (10 μM, Sandoz) and bongkrekic acid (BA) (Marchetti et al., 1996) (Calbiochem, Calif.) were used. […] The same effect was observed using BA (52% in CDDO-Me treated HL-60 cells, 23% when cells were pre-treated with BA).

Bcl-2 phosphorylation = assay: Bcl-2 phosphorylation, 32P metabolic labeling; format: cell-based; details: 0.1 μM
Procedure: Metabolic labeling, immunoprecipitation, and immunoblot analysis. Cells were labeled with [^32P]orthophosphoric acid and then treated with 0.1 μM CDDO-Me or CDDO, after which Bcl-2 was analyzed by immunoprecipitation, as previously described Samples were electrophoresed in a 12% acrylamide/0.1% SDS gel, transferred to nitrocellulose, and exposed to Hyperfilm (Amersham Pharmacia Biotech, UK) at −80° C. The same blot was used for western blot analysis with anti-Bcl-2 antisera.
The effect of CDDO-Me on Bcl-2 phosphorylation was further investigated by performing metabolic labeling studies with ^32P-orthophosphoric acid. […] To further investigate mechanisms of inhibition of Bcl-2 phosphorylation that could may a role in CDDO-Me-induced cell death, the inventors selected U937 cells that were stably transfected with a serine 70→alanine, Bcl-2 mutant (S70A).

Row | SMILES | transactivation of GAL4-PPARγ (GAL4-PPARγ) | cells with decreased Δψ (U937 cells; CDDO-Me alone) [%] | cells with decreased Δψ (U937 cells; after DEVD pretreatment) [%] | cells with low CMXRos staining (HL-60 cells; 2 hrs) [%] | cells with low JC-1 (HL-60 cells; 2 hrs) [%] | cells with low CMXRos staining (HL-60 cells; 4 hrs) [%] | cells with low JC-1 (HL-60 cells; 4 hrs) [%] | cells with Δψ loss (HL-60 cells; CDDO-Me alone) [%] | cells with Δψ loss (HL-60 cells; cells pre-treated with bongkrekic acid (BA)) [%] | Bcl-2 phosphorylation (Bcl-2 phosphorylation)
1 | CC1(C)CCC2(C(=O)O)CCC3(C)C(C(=O)C=C4C5(C)C=C(C#N)C(=O)C(C)(C)C5CCC43C)C2C1 (stereo not shown) [CDDO, 2-cyano-3,12-dioxoolen-1,9-dien-28-oic acid] | transactivates GAL4-PPARγ in a dose-dependent manner |  |  |  |  |  |  |  |  | 
2 | COC(=O)[C@]12CCC(C)(C)C[C@H]1[C@H]1C(=O)C=C3[C@@]4(C)C=C(C#N)C(=O)C(C)(C)[C@@H]4CC[C@@]3(C)[C@]1(C)CC2 [CDDO-Me] |  | 40 | 4 | 46 | 57 | 57 | 60 | 52 | 23 | virtually abrogated
